Measurements as given in patent US20240269139A1, “COMPOUNDS FOR TARGETED PROTEIN DEGRADATION OF KINASES” (DANA-FARBER CANCER INSTITUTE, INC., priority 2020, published 2024).
Read-outs that look alike come from different tables or passages of the source.

Experiments:
Type in all cases: cell-based
[1] = target: T1, protein kinases (human kinome) (Homo sapiens, UniProt O00444)
T1 sequence (O00444 1-970): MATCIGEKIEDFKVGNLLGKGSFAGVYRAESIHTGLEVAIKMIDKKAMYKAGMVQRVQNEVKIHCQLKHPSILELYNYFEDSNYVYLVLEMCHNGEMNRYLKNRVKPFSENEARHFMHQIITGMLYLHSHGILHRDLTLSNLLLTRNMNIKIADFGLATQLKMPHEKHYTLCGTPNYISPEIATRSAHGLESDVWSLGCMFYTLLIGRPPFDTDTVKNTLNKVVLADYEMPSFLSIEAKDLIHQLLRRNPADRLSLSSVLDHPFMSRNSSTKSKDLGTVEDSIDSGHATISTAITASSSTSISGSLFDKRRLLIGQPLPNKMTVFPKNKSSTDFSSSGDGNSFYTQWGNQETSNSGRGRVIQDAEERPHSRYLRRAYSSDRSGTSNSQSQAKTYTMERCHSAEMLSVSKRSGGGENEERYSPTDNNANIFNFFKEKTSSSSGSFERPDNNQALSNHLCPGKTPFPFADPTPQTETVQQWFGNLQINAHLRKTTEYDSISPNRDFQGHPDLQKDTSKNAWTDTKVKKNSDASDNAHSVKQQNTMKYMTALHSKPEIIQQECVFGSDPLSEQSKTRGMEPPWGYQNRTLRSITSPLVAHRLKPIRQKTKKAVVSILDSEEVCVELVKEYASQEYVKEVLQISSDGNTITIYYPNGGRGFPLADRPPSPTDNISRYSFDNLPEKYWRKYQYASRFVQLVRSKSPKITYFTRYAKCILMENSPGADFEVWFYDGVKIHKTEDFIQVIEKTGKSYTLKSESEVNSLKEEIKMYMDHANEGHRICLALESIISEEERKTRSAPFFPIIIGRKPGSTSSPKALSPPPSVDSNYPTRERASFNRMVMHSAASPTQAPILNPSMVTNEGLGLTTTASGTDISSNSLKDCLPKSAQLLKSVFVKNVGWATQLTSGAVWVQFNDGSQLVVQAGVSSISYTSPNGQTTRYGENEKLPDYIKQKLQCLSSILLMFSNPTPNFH

[2] = target: T2, protein kinases (human kinome) (Homo sapiens, UniProt Q8TD19)
T2 sequence (Q8TD19 1-979): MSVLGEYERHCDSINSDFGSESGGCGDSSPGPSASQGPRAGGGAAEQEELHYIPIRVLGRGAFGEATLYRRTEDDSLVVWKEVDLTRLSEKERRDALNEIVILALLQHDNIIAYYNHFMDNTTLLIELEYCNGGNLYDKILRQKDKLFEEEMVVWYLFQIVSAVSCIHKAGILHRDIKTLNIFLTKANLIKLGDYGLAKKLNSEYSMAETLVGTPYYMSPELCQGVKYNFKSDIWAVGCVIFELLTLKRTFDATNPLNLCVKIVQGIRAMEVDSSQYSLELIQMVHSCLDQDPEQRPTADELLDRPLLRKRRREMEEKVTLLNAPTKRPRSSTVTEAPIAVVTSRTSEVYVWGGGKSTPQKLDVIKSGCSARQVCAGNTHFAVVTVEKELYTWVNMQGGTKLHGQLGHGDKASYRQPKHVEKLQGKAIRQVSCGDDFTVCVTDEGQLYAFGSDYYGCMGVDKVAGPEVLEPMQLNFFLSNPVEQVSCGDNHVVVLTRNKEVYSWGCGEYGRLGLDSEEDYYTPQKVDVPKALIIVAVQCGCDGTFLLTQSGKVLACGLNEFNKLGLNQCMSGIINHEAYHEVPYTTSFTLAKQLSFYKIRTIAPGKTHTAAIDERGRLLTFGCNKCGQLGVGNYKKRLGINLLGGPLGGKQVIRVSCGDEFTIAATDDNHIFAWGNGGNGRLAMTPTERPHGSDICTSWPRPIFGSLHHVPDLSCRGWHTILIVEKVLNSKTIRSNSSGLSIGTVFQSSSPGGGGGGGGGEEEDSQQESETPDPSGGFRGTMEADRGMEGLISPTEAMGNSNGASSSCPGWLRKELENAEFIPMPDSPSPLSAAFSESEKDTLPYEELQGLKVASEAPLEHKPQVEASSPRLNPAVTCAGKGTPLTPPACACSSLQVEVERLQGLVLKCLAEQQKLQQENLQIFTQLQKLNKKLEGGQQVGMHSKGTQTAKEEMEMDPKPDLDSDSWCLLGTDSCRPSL

[3] = target: protein kinases (human kinome) (Homo sapiens, UniProt Q15418); conditions: for logFC: RPS6KA1 (Q15418-1), direction down
[4] = target: protein kinases (human kinome) (Homo sapiens, UniProt P06241); conditions: for logFC: FYN (P06241-1), direction down
[5] = target: protein kinases (human kinome) (Homo sapiens, UniProt P06493); conditions: CDK1 P06493
[6] = target: protein kinases (human kinome) (Homo sapiens, UniProt P54646); conditions: experiment wp146
[7] = NEK9 (Q8TD19), experiment wp045, direction down
[8] = NEK9 (Q8TD19), experiment wp117, direction down
[9] = Accession P06241-1, experiment wp105
[10] = Accession O00444, experiment wp131, direction down
[11] = Accession O00444, experiment wp137, direction down
[12] = PLK4 (O00444), experiment wp137

protein kinases (human kinome) (Homo sapiens, UniProt Q15418), sequence (Q15418 whole entry): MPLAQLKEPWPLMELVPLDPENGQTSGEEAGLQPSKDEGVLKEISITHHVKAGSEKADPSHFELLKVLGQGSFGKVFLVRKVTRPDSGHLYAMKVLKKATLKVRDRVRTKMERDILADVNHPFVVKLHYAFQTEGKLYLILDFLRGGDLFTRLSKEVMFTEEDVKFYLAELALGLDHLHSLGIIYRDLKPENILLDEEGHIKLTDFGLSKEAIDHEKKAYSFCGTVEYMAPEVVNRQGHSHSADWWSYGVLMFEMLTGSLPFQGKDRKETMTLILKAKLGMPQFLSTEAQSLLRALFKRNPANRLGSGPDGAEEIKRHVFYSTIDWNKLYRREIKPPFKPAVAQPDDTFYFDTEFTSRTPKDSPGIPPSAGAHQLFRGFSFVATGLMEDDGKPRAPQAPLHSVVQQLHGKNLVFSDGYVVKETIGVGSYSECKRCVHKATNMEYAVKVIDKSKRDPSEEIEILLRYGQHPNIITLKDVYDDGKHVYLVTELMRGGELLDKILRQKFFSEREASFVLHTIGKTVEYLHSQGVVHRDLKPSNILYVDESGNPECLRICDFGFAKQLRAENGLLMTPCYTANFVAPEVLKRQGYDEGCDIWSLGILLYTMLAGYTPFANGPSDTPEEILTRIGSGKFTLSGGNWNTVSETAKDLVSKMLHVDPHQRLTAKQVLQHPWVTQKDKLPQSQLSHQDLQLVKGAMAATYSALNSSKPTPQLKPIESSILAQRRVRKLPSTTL
protein kinases (human kinome) (Homo sapiens, UniProt P06241), sequence (P06241 whole entry): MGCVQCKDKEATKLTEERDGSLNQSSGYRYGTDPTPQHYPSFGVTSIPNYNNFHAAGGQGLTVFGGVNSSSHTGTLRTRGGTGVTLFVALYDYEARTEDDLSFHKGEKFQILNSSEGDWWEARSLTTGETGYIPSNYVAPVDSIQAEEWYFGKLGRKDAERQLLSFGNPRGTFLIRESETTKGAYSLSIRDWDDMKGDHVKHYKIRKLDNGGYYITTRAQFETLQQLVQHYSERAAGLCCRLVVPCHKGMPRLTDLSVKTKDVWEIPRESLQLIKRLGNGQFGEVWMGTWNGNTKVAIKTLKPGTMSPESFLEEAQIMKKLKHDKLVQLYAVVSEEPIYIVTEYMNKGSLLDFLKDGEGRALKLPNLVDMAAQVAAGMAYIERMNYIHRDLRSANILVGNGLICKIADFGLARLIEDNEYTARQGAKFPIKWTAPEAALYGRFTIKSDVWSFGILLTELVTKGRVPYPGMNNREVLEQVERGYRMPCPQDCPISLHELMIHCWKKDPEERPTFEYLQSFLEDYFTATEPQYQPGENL
protein kinases (human kinome) (Homo sapiens, UniProt P06493), sequence (P06493 whole entry): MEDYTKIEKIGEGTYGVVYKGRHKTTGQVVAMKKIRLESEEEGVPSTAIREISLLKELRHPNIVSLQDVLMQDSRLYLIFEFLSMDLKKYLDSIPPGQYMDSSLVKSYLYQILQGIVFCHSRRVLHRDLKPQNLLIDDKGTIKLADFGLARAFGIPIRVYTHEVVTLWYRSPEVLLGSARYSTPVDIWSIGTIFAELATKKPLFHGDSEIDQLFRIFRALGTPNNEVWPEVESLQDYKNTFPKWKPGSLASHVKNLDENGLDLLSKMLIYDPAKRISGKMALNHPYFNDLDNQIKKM
protein kinases (human kinome) (Homo sapiens, UniProt P54646), sequence (P54646 whole entry): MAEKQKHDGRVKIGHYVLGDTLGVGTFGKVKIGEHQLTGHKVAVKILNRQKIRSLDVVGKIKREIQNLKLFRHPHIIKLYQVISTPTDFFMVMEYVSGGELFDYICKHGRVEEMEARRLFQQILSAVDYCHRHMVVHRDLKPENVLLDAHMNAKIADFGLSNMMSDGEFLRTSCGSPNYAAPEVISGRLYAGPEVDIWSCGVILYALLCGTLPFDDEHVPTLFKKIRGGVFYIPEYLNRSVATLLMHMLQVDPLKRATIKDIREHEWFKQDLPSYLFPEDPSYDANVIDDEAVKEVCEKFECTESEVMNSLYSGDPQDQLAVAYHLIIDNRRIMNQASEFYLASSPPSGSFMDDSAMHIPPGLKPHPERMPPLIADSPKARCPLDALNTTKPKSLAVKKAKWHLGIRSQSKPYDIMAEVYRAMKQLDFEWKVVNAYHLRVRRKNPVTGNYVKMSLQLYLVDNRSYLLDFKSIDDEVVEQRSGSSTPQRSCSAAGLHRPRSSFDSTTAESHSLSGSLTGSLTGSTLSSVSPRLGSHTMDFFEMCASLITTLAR

CS(=O)(=O)Nc1cccc(-c2csc3cnc(Nc4ccc(N5CCN(CCCCCOc6cccc7c6C(=O)N(C6CCC(=O)NC6=O)C7=O)CC5)cc4)nc23)c1 (stereo not shown) [DB0614, N-(3-(2-((4-(4-(5-((2-(2,6-Dioxopiperidin-3-yl)-1,3-dioxoisoindolin-4-yl)oxy)pentyl)piperazin-1-yl)phenyl)amino)thieno[3,2-d]pyrimidin-7-yl)phenyl)methanesulfonamide]
logFC PLK4 ([1]; Accession O00444, experiment wp117, direction down): −0.5414 | logFC PLK4 (O00444) ([1]; experiment wp117): −0.5414 | logFC [2, 7]: −2.74 | logFC [2, 8]: −3.006 | logFC ([2]; NEK9 Q8TD19, experiment wp045): −2.74 | logFC ([2]; NEK9 Q8TD19, experiment wp117): −3.006

Cc1ccc(NC(=O)c2cccc(C(F)(F)F)c2)cc1N1Cc2cnc(Nc3ccc(N4CCN(Cc5cn(CCCCCOc6cccc7c6C(=O)N(C6CCC(=O)NC6=O)C7=O)nn5)CC4)nc3)nc2N(C)C1=O (stereo not shown) [DB0646, N-(3-(7-((6-(4-((1-(5-((2-(2,6-Dioxopiperidin-3-yl)-1,3-dioxoisoindolin-4-yl)oxy)pentyl)-1H-1,2,3-triazol-4-yl)methyl)piperazin-1-v)pyridin-3-yl)amino)-1-methyl-2-oxo-1,4-dihydropyrimido[4,5-d]pyrimidin-3(2H)-yl)-4-methylphenyl)-3-(trifluoromethyl)benzamide]
logFC ([3]; experiment wp160, 8 hr): −0.413 | logFC RPS6KA1 (Q15418-1) ([3]; experiment wp160, 8 hr): −0.413 | logFC FYN [4, 9]: −0.4621 | logFC FYN ([4]; Accession P06241, experiment wp152): −0.3685 | logFC FYN (P06241) ([4]; Experiment wp152, direction of change down): −0.3685 | logFC ([4]; experiment wp105): −0.4621

Cc1ccc(NC(=O)c2cccc(C(F)(F)F)c2)cc1N1Cc2cnc(Nc3ccc(N4CCN(CCCOc5cccc6c5C(=O)N(C5CCC(=O)NC5=O)C6=O)CC4)nc3)nc2N(C)C1=O (stereo not shown) [DB0662]
logFC ([3]; experiment wp168): −0.4724 | logFC RPS6KA1 (Q15418-1) ([3]; experiment wp168): −0.4724

Cc1ccc(NC(=O)c2cccc(C(F)(F)F)c2)cc1N1Cc2cnc(Nc3ccc(N4CCN(CCCCC(=O)N[C@H](C(=O)N5C[C@H](O)C[C@H]5C(=O)N[C@@H](C)c5ccc(-c6scnc6C)cc5)C(C)(C)C)CC4)nc3)nc2N(C)C1=O [DB1113]
logFC ([3]; experiment wp168): −0.7297 | logFC RPS6KA1 (Q15418-1) ([3]; experiment wp168): −0.7297

CC(C)(C)c1nc(-c2cccc(NS(=O)(=O)c3c(F)cccc3F)c2F)c(-c2ccnc(NCCOCCNC(=O)CCOCCOCCNc3cccc4c3C(=O)N(C3CCC(=O)NC3=O)C4=O)n2)s1 (stereo not shown) [DD.03.106]
logFC ([5]; experiment wp147, 2 uM): −0.5015 | logFC CDK1 ([5]; experiment wp147, 2 uM): −0.5015 | logFC ([5]; experiment wp147, 4 uM): −0.5416 | logFC CDK1 ([5]; experiment wp147, 4 uM): −0.5416

Cc1ncsc1-c1ccc([C@H](C)NC(=O)[C@@H]2C[C@@H](O)CN2C(=O)[C@@H](NC(=O)CCOCCOCCN2CCN(c3ccc(Nc4ncc(Cl)c(Nc5ccccc5S(=O)(=O)C(C)C)n4)cc3)CC2)C(C)(C)C)cc1 [FMF.06.098.1]
logFC ([5]; experiment wp131): −0.3535 | logFC CDK1 ([5]; experiment wp131): −0.3535 | logFC PLK4 [1, 10]: −0.7435 | logFC PLK4 (O00444) ([1]; experiment wp131): −0.7435

Cc1cnc(Nc2ccc(N3CCN(CCCCCCC(=O)N[C@H](C(=O)N4C[C@H](O)C[C@H]4C(=O)N[C@@H](C)c4ccc(-c5scnc5C)cc4)C(C)(C)C)CC3)cc2)nc1Nc1cccc(S(=O)(=O)NC(C)(C)C)c1 [JWG.123]
logFC ([2]; NEK9 (Q8TD19), experiment wp195, direction down): −1.079 | logFC ([2]; NEK9 Q8TD19, experiment wp195): −1.079

CS(=O)(=O)Nc1cccc(-c2csc3cnc(Nc4ccc(N5CCN(CCOCCOCCOc6cccc7c6C(=O)N(C6CCC(=O)NC6=O)C7=O)CC5)cc4)nc23)c1 (stereo not shown) [RSS0628]
logFC [2, 7]: −2.438 | logFC ([2]; NEK9 Q8TD19, experiment wp045): −2.438

Cc1ncsc1-c1ccc([C@H](C)NC(=O)[C@@H]2C[C@@H](O)CN2C(=O)[C@@H](NC(=O)CCCCCN2CCN(c3ccc(Nc4ncc5scc(-c6cccc(NS(C)(=O)=O)c6)c5n4)cc3)CC2)C(C)(C)C)cc1 [RSS0680, (2S,4R)-1-((S)-3,3-Dimethyl-2-(6-(4-(4-((7-(3-(methylsulfonamido)phenyl)thieno[3,2-d]pyrimidin-2-yl)amino)phenyl)piperazin-1-yl)hexanamido)butanoyl)-4-hydroxy-N—((S)-1-(4-(4-methylthiazol-5yl)phenyl)ethyl)pyrrolidine-2-carboxamide]
logFC ([5]; experiment wp117): −0.3587 | logFC CDK1 ([5]; experiment wp117): −0.3587 | logFC ([2]; NEK9 (Q8TD19), experiment wp080, direction down): −1.277 | logFC [2, 8]: −1.483 | logFC ([2]; NEK9 Q8TD19, experiment wp080): −1.277 | logFC ([2]; NEK9 Q8TD19, experiment wp117): −1.483

Cc1ccc(C(=O)Nc2ccc(CN3CCN(CCCOCCOCCOCCNC(=O)COc4cccc5c4C(=O)N(C4CCC(=O)NC4=O)C5=O)CC3)c(C(F)(F)F)c2)cc1C#Cc1cnc2cccnn12 (stereo not shown) [SB1.G.187]
logFC FYN [4, 9]: −0.7697 | logFC FYN ([4]; Accession P06241-1, experiment wp107): −0.3601 | logFC ([4]; experiment wp105): −0.7697 | logFC ([4]; experiment wp107): −0.3601

Cn1c(=O)c(-c2c(Cl)cccc2Cl)cc2cnc(Nc3ccc(OCCNC(=O)CCCCCCNC(=O)COc4cccc5c4C(=O)N(C4CCC(=O)NC4=O)C5=O)cc3)nc21 (stereo not shown) [SB1.G.192.1]
logFC FYN ([4]; Accession P06241-1, experiment wp081): −0.9314 | logFC ([4]; experiment wp081): −0.9314

CC(C)S(=O)(=O)c1ccccc1Nc1nc(Nc2ccc(N3CCN(CCOCCOCCNC(=O)CNc4cccc5c4C(=O)N(C4CCC(=O)NC4=O)C5=O)CC3)cc2)ncc1Cl (stereo not shown) [TL12.186]
logFC PLK4 [1, 10]: −1.559 | logFC PLK4 [1, 11]: −1.159 | logFC PLK4 [1, 12]: −1.159 | logFC PLK4 (O00444) ([1]; experiment wp131): −1.559 | logFC ([3]; experiment wp131): −0.3562 | logFC RPS6KA1 (Q15418-1) ([3]; experiment wp131): −0.3562

CC(C)S(=O)(=O)c1ccccc1Nc1nc(Nc2ccc(N3CCN(CCOCCOCCC(=O)NCCNc4cccc5c4CN(C4CCC(=O)NC4=O)C5=O)CC3)cc2)ncc1Cl (stereo not shown) [TL13.97]
logFC PLK4 [1, 11]: −1.049 | logFC PLK4 [1, 12]: −1.049

NC(=O)c1c(F)cccc1Nc1nc(Nc2ccc(S(=O)(=O)NCCOCCOCCOCCOCCNc3cccc4c3C(=O)N(C3CCC(=O)NC3=O)C4=O)cc2)ncc1Br (stereo not shown) [TMX.02.138]
logFC ([5]; experiment wp146): −1.641 | logFC CDK1 ([5]; experiment wp146): −1.641 | logFC ([6]; PRKAA2 (P54646)): −1.476 | logFC of PRKAA2 (P54646) [6]: −1.476
